{"source": "patent US10300130B2", "about": "“Cytomegalovirus vaccines and methods of production” (The Trustees of Princeton University, priority 2007, dated 2019)", "key": {"BADrUL131": {"system": "BADrUL131", "experiment": "Dependence of infection on endosome acidification (IE1-positive ARPE-19 cells), BADrUL131", "format": "cell-based, HCMV", "conditions": "1 h pretreatment, 1 pfu/cell, IE1 16 h later", "procedure": "(§1) FIGS. 3A-3B. Effects of inhibitors of endosome acidification and virion source on HCMV entry into ARPE-19 cells. Experiments were performed in triplicate, and the number of positive cells in drug-treated relative to untreated cultures is reported. FIG. 3A: Cells were pretreated with NH4Cl or BFA for 1 h, inoculated with epiBADrUL131 or fibroBADrUL131 (1 pfu/cell) and stained for IE 1 16 h later. FIG. 3B: Cells were pretreated with 50 mM NH4Cl or 40 nM BFA for 1 h, and then inoculated with BADrUL131 (0.1 pfu/cell) or FIXwt (0.01 pfu/cell) produced in the indicated cell types and stained for IE1 16 h later.\n(§2) ARPE-19 cells were pretreated with NH4Cl or Bafilomycin A1 (BFA) (Sigma) for 1 h at 37° C., followed by infection in the continued presence of the inhibitor. 16 h later, cultures were fixed in 2% paraformaldehyde and permeabilized with 0.1% Triton X-100. IE1 was identified by immunofluorescence using monoclonal antibody IB12 (21) plus Alexa 546-conjugated secondary antibody and nuclei were stained with DAPI. Inhibition was calculated as the percentage of IE1-expressing drug-treated relative to untreated cells.\nMany viruses that enter cells by endocytosis (1, 4, 10) require acidification of endosomes for the virion envelope to fuse with the endosomal membrane and release the capsid into the cytoplasm. NH4Cl. which buffers endosomal pH, and bafilomycin A1 (BFA), which blocks the endosomal ATPase proton pump, were tested for their effect on infection of ARPE-19 cells. After pretreatment with either agent, cells were infected and cultured in drug containing medium for a further 16 h. Successful infections were scored by assaying for IE1-positive cells."}, "BFXwt": {"system": "BFXwt", "experiment": "Dependence of infection on endosome acidification (IE1-positive ARPE-19 cells), BFXwt", "format": "cell-based, HCMV", "conditions": "50 mM NH4Cl or 40 nM BFA, 0.01 pfu/cell", "procedure": "as §1, §2\nThe effect of endosomal pH on entry of the BFXwt clinical isolate into ARPE-19 cells was also assayed (FIG. 3B. right panel)."}}, "data": [{"compound": "CO/C1=C\\C(C)=C\\[C@@H](C)[C@@H](O)[C@@H](C)C/C(C)=C/C=C/[C@H](OC)[C@@H]([C@@H](C)[C@@H](O)[C@H](C)[C@@]2(O)C[C@@H](O)[C@H](C)[C@@H](C(C)C)O2)OC1=O", "note": "[BFA, Bafilomycin A1]", "values": [{"measurement": "effect of pretreatment on epiBADrUL131 infection (IE1-positive cells)", "setting": "BADrUL131", "value": "only a modest effect"}, {"measurement": "effect of pretreatment on fibroBADrUL131 infection (IE1 expression)", "setting": "BADrUL131", "value": "inhibited IE1 expression"}, {"measurement": "effect on number of IE1-positive ARPE-19 cells, epithelial cell-derived BFXwt", "setting": "BFXwt", "value": "only a slight inhibition"}, {"measurement": "effect on number of IE1-positive ARPE-19 cells, fibroblast-generated BFXwt", "setting": "BFXwt", "value": "significantly reduced"}]}, {"compound": "Cl.N", "note": "[NH4Cl]", "values": [{"measurement": "effect of pretreatment on epiBADrUL131 infection (IE1-positive cells)", "setting": "BADrUL131", "value": "only a modest effect"}, {"measurement": "effect of pretreatment on fibroBADrUL131 infection (IE1 expression)", "setting": "BADrUL131", "value": "inhibited IE1 expression"}, {"measurement": "effect on number of IE1-positive ARPE-19 cells, epithelial cell-derived BFXwt", "setting": "BFXwt", "value": "only a slight inhibition"}, {"measurement": "effect on number of IE1-positive ARPE-19 cells, fibroblast-generated BFXwt", "setting": "BFXwt", "value": "significantly reduced"}]}]}
